In the test the target is human NK-3 receptor (Homo sapiens (Human), UniProt P29371). The test can be described thus: 3H-SB222200 binding competition assay with human NK-3 receptor. Particulars: 3H-SB222200 displacement, CHO cell membranes expressing human NK3 receptor; read-out: Ki range. A digest of the protocol: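 Radioligand displacement: 5 nM tritiated SB222200 competed by varying compound concentrations on recombinant CHO membranes bearing human NK3, buffer pH 7.4 with HEPES, NaCl, CaCl2, MgCl2, BSA and saponin. Filter-bound radioactivity quantified; calculated Ki given as ranges from +++ (<500 nM) to # (>5 μM).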
Chain of human NK-3 receptor (P29371 whole entry): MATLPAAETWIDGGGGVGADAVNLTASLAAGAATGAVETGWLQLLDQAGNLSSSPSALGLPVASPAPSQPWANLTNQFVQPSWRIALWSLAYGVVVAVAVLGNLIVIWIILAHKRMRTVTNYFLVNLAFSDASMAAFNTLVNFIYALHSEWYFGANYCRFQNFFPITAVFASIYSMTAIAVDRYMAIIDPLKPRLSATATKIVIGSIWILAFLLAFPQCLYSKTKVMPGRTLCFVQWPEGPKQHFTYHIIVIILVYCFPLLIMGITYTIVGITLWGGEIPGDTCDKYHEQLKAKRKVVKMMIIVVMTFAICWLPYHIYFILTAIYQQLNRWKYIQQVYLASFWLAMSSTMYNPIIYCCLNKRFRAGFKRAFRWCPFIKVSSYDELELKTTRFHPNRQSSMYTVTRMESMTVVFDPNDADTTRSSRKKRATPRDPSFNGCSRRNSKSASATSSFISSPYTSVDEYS
With `O=C(c1ccc(F)cc1)N1CCn2c(nnc2-c2csc(-c3ccc(F)cc3F)n2)C1` [Compound 29, (3-(2-(2,4-difluorophenyl)thiazol-4-yl)-5,6-dihydro-[1,2,4]triazolo[4,3-a]pyrazin-7(8H)-yl)(4-fluorophenyl)methanone], the Ki is < 500 nM.

As to `CN1CCN(c2ccc(-c3nc(-c4nnc5n4CCN(C(=O)c4ccc(F)cc4)C5)cs3)cc2)CC1` [Compound 242, (4-fluorophenyl)(3-(2-(4-(4-methylpiperazin-1-yl)phenyl)thiazol-4-yl)-5,6-dihydro-[1,2,4]triazolo[4,3-a]pyrazin-7(8H)-yl)methanone], the Ki was in the range of 500 to 1000 nM.

With `CC(C)Cc1nc(-c2nnc3n2CCN(C(=O)c2ccc(F)cc2)C3)cs1` [Compound 259, (4-fluorophenyl)(3-(2-isobutylthiazol-4-yl)-5,6-dihydro-[1,2,4]triazolo[4,3-a]pyrazin-7(8H)-yl)methanone], the inhibition constant Ki fell in the range of 1000 to 5000 nM.

Regarding `COCCn1nc(-c2ccccc2)cc1-c1nnc2n1CCN(C(=O)c1ccc(-c3cccs3)cc1)C2` [Compound 254, (3-(1-(2-methoxyethyl)-3-phenyl-1H-pyrazol-5-yl)-5,6-dihydro-[1,2,4]triazolo[4,3-a]pyrazin-7(8H)-yl)(4-(thiophen-2-yl)phenyl)methanone], the Ki is < 500 nM.

For the compound `Cc1ccc(-c2nc(-c3nnc4n3CCN(C(=O)c3ccc(F)cc3)C4)cs2)cc1` [Compound 190, (4-fluorophenyl)(3-(2-(p-tolyl)thiazol-4-yl)-5,6-dihydro-[1,2,4]triazolo[4,3-a]pyrazin-7(8H)-yl)methanone], the Ki is < 500 nM.

`O=C(c1cc(-c2ccc(Cl)c(Cl)c2)n[nH]1)N1CCn2c(nnc2-c2ccccn2)C1` [Compound 4, (3-(3,4-dichlorophenyl)-1H-pyrazol-5-yl)(3-(pyridin-2-yl)-5,6-dihydro-[1,2,4]triazolo[4,3-a]pyrazin-7(8H)-yl)methanone]: the Ki is 1000 to 5000 nM.

Turning to `C[C@H]1c2nnc(-c3ccc4ccccc4n3)n2CCN1C(=O)c1ccc(F)cc1` [Compound 162, (S)-(4-fluorophenyl)(8-methyl-3-(quinolin-2-yl)-5,6-dihydro-[1,2,4]triazolo[4,3-a]pyrazin-7(8H)-yl)methanone], the Ki is < 500 nM.

As for `C[C@H]1c2nnc(-c3nc(-c4ccc(F)cc4)no3)n2CCN1C(=O)c1ccc(-c2cccs2)cc1` [Compound 168, (S)-(3-(3-(4-fluorophenyl)-1,2,4-oxadiazol-5-yl)-8-methyl-5,6-dihydro-[1,2,4]triazolo[4,3-a]pyrazin-7(8H)-yl)(4-(thiophen-2-yl)phenyl)methanone], the Ki was < 500 nM.

As for `O=C(c1ccc(-c2ccccc2)cc1)N1CCn2c(nnc2-c2nc(-c3ccccc3)no2)C1` [Compound 217, [1,1′-biphenyl]-4-yl(3-(3-phenyl-1,2,4-oxadiazol-5-yl)-5,6-dihydro-[1,2,4]triazolo[4,3-a]pyrazin-7(8H)-yl)methanone], the Ki was < 500 nM.

As to `CC1c2nnc(-c3csc(N4CCOCC4)n3)n2CCN1C(=O)c1ccc(-c2ccc(F)cc2)cc1` (centres unmarked) [Compound 53, (4′-fluoro-[1,1′-biphenyl]-4-yl)(8-methyl-3-(2-morpholinothiazol-4-yl)-5,6-dihydro-[1,2,4]triazolo[4,3-a]pyrazin-7(8H)-yl)methanone], the Ki was < 500 nM.

Take `COc1ccc(-c2nc(-c3nnc4n3CCN(C(=O)c3ccc(F)cc3)C4)cs2)cc1OC` [Compound 40, (3-(2-(3,4-dimethoxyphenyl)thiazol-4-yl)-5,6-dihydro-[1,2,4]triazolo[4,3-a]pyrazin-7(8H)-yl)(4-fluorophenyl)methanone]: the inhibitory constant (Ki) is < 500 nM.

For `O=C(c1ccc(-c2ccccc2)cn1)N1CCn2c(nnc2-c2ccc3ccccc3n2)C1` [Compound 90, (5-phenylpyridin-2-yl)(3-(quinolin-2-yl)-5,6-dihydro-[1,2,4]triazolo[4,3-a]pyrazin-7(8H)-yl)methanone], the Ki was < 500 nM.

Turning to `O=C(c1ccc(F)cc1)N1CCn2c(nnc2-c2coc(-c3ccccc3)n2)C1` [Compound 47, (4-fluorophenyl)(3-(2-phenyloxazol-4-yl)-5,6-dihydro-[1,2,4]triazolo[4,3-a]pyrazin-7(8H)-yl)methanone], the Ki is < 500 nM.

As to `O=C(c1ccc(F)cc1)N1CCn2c(nnc2-c2csc(N3CCCC3)n2)C1` [Compound 249, (4-fluorophenyl)(3-(2-(pyrrolidin-1-yl)thiazol-4-yl)-5,6-dihydro-[1,2,4]triazolo[4,3-a]pyrazin-7(8H)-yl)methanone], the inhibitory constant (Ki) is < 500 nM.

Regarding `O=C(c1ccc(-c2cccs2)cc1)N1CCn2c(nnc2-c2csc(CS(=O)(=O)c3ccc(Cl)cc3)n2)C1` [Compound 198, (3-(2-(((4-chlorophenyl)sulfonyl)methyl)thiazol-4-yl)-5,6-dihydro-[1,2,4]triazolo[4,3-a]pyrazin-7(8H)-yl)(4-(thiophen-2-yl)phenyl)methanone], the Ki lay within 1000 to 5000 nM.

For the compound `O=C(c1ccc(F)cc1)N1CCn2c(nnc2-c2nc3ccccc3s2)C1` [Compound 59, (3-(benzo[d]thiazol-2-yl)-5,6-dihydro-[1,2,4]triazolo[4,3-a]pyrazin-7(8H)-yl)(4-fluorophenyl)methanone], the inhibitory constant (Ki) is < 500 nM.

As to `O=C(c1ccc(-c2ccccc2)cc1)N1CCn2c(nnc2-c2coc(-c3ccccc3)n2)C1` [Compound 50, [1,1′-biphenyl]-4-yl(3-(2-phenyloxazol-4-yl)-5,6-dihydro-[1,2,4]triazolo[4,3-a]pyrazin-7(8H)-yl)methanone], the inhibition constant (Ki) was < 500 nM.

As for `CC1CN(C(=O)c2ccc(-c3cccs3)cc2)Cc2nnc(-c3csc(-c4ccc(F)cc4)n3)n21` (centres unmarked) [Compound 108, (3-(2-(4-fluorophenyl)thiazol-4-yl)-5-methyl-5,6-dihydro-[1,2,4]triazolo[4,3-a]pyrazin-7(8H)-yl)(4-(thiophen-2-yl)phenyl)methanone], the inhibitory constant (Ki) was in the range of 500 to 1000 nM.

Consider `O=C(c1ccc(F)cc1)N1CCn2c(nnc2-c2csc(-c3ccncc3)n2)C1` [Compound 218, (4-fluorophenyl)(3-(2-(pyridin-4-yl)thiazol-4-yl)-5,6-dihydro-[1,2,4]triazolo[4,3-a]pyrazin-7(8H)-yl)methanone], for which the Ki lay in the range of 1000 to 5000 nM.

Take `COc1ccccc1-c1nc(-c2nnc3n2CCN(C(=O)c2ccc(-c4ccccc4)cc2)C3)cs1` [Compound 203, [1,1′-biphenyl]-4-yl(3-(2-(2-methoxyphenyl)thiazol-4-yl)-5,6-dihydro-[1,2,4]triazolo[4,3-a]pyrazin-7(8H)-yl)methanone]: the Ki fell in the range of 500 to 1000 nM.

Consider `O=C(c1ccc(-c2cccs2)cc1)N1CCn2c(nnc2-c2cc(-c3ccccc3)nn2CCO)C1` [Compound 284, (3-(1-(2-hydroxyethyl)-3-phenyl-1H-pyrazol-5-yl)-5,6-dihydro-[1,2,4]triazolo[4,3-a]pyrazin-7(8H)-yl)(4-(thiophen-2-yl)phenyl)methanone], for which the Ki is < 500 nM.

As for `O=C(c1ccc(-c2ccccc2)cc1)N1CCn2c(nnc2-c2csc(-c3cccs3)n2)C1` [Compound 195, [1,1′-biphenyl]-4-yl(3-(2-(thiophen-2-yl)thiazol-4-yl)-5,6-dihydro-[1,2,4]triazolo[4,3-a]pyrazin-7(8H)-yl)methanone], the Ki was < 500 nM.

`Cn1nc(-c2ccccc2)cc1-c1nnc2n1CCN(C(=O)c1ccc(F)cc1)C2` [Compound 225, (4-fluorophenyl)(3-(1-methyl-3-phenyl-1H-pyrazol-5-yl)-5,6-dihydro-[1,2,4]triazolo[4,3-a]pyrazin-7(8H)-yl)methanone]: the Ki was in the range of 1000 to 5000 nM.
